US20220184071A1, “GEPOTIDACIN FOR USE IN THE TREATMENT OF BACTERIAL URINARY TRACT INFECTIONS” (GlaxoSmithKline Intellectual Property Development Limited, priority 2019, published 2022)
Values after ≈ are worked out from the molar mass of the structure shown.

Experiments:
C. koseri [1] = assay: Phase IIa baseline uropathogen susceptibility testing (CLSI broth microdilution); type: cell-based, Citrobacter koseri; settings: Citrobacter koseri; Participant 1; read-out: GEP MIC
Description: (§1) This phase IIa single center study evaluated the safety, tolerability, pharmacokinetics, and efficacy of oral gepotidacin 1500 mg BID for 5 days in female subjects with acute cystitis. Clean catch mid-stream urine specimens were obtained for quantitative culture by standard methods. Urine samples were taken from all participants pre-treatment (baseline) and at all post-baseline visits. All urine samples were sent to a central laboratory (PPD Global Clinical Laboratories, Highland Heights, Ky., USA) for Gram stain, quantitative culture, pathogen identification and susceptibility testing. See FIG. 1 for participant disposition and study outline.
(§2) Susceptibility testing by CLSI broth microdilution and gradient diffusion (fosfomycin only) was conducted (CLSI, 2015, Methods for dilution antimicrobial susceptibility tests for bacteria that grow aerobically; approved standard-tenth edition; and CLSI, 2018. Performance Standards for Antimicrobial Susceptibility Testing; Twenty-seventh Informational Supplement M100-S28). Inclusion in the microbiological intent-to-treat population (micro-ITT), required growth of a qualifying baseline uropathogen (≥10^5 CFU/mL). See FIG. 2 for the baseline algorithm.

[2] = Saliva exposure, healthy volunteers; type: in vivo, human; settings: 1500 mg oral single dose
Description: Antibiotic target site exposures play a key role as suboptimal levels may lead to therapeutic failure and resistance. Across multiple clinical studies, exposures to gepotidacin were assessed in plasma and other matrices, such as urine, saliva, epithelial lining fluid (ELF) and Alveolar Macrophages (AM).
Bronchoalveolar lavage samples were collected to determine gepotidacin exposures in ELF and AM following a single 1000 mg IV infusion over 2 hours to healthy subjects. Saliva exposure was assessed in healthy volunteers following 1500 mg oral single dose. Gepotidacin exposures in urine was assessed in women with acute uUTI following 1500 mg BID oral doses for 5 days.

E. coli ALL = assay: Neutropenic mouse kidney infection (pyelonephritis/UTI) model PK/PD; type: in vivo; settings: Strain ALL
Description: PK and PD studies using gepotidacin were conducted in murine (male CD-1 mice) thigh and kidney infections. The administered doses ranged from 1 to 200 mg/kg SC every 6 hours starting 1h post infection. Infected tissues were evaluated for bacterial burden at 24 h post infection (baseline controls at 1 h post infection).
Efficacy was determined against E. coli ALL, 997577, ATCC25922, IR5 and NCTC13441 (MICs of 1 to 4 μg/mL) in thigh-infected neutropenic (I−) mice and against E. coli ALL in kidney-infected immunocompetent (I+) and I− mice. The PopPK model was used to determine GEP exposures associated with efficacy. PK-PD analyses were conducted using Phoenix WinNonLin 6.3 (Pharsight). The change in login colony forming units (CFU) from baseline were correlated with free drug (f) AUC:MIC using an inhibitory model from the Phoenix library, and model parameter values for each isolate were used to calculate the plasma fAUC:MIC associated with stasis, 1- or 2-login reductions in CFU.
PD studies were conducted using thigh and/or kidney infection models in neutropenic or competent mice (N=5/group). Mice were infected with a bacterial suspension in log phase: 100 μL in the left thigh muscle or 50 μL in each of both kidneys (100 μl total). Final inocula across all isolates were 6.0 to 7.0 login CFU/mouse. Dose-ranging studies were conducted with 5 isolates (see Table 1). Starting 1 hr after infection, GEP was given SC (0.2 mL/mouse) at discrete doses of 1-200 mg/kg every 6 hours (q6) for a 24-hour period (4 doses in total). Mice were euthanized 24 hr after start of therapy (6 hr after the last dose), and infected thighs or kidneys were processed to determine viable bacterial counts (CFU). Baseline CFU were obtained from untreated mice at 1 hr post infection and growth control CFU from saline-treated mice at 24 hr.
NCA analyses were conducted with the simulated data. […]

[3] = MIC, conclusion to Example 1 Methods 1 and 2; type: cell-based; settings: at least one strain of every organism listed
Description: Antimicrobial activity was determined by broth microdilution using the CLSI recommended procedure.
Antimicrobial activity was determined in a second study by […] using the CLSI recommended procedure in serial two-fold dilutions and the minimum inhibitory concentration (MIC) was determined as the lowest concentration of the compound that inhibited visible growth.

S. saprophyticus = assay: Phase IIa PK/PD and microbiological response by uropathogen; type: in vivo, human; settings: Participant 8
Description: as §1, §2
(§3) For pharmacokinetic assessments, serial blood and urine samples for the assessment of gepotidacin PK concentrations were collected out to 12 hours post dose (T) following the morning dose on Days 1 and 4. CT (trough) concentrations were collected on Days 1-5. PK concentrations of gepotidacin in plasma and urine were measured using a validated LC-MS/MS bio-analytical assay.

E. coli = assay: as above; type: in vivo, human
Description: as §1, §2, §3

K. pneumoniae = assay: as above; type: in vivo, human; settings: Participant 7
Description: as §1, §2, §3

C. koseri [4] = assay: as above; type: in vivo, human; settings: Participant 1
Description: as §1, §2, §3

Providencia stuartii = assay: MIC by CLSI broth microdilution, isolates from UTI patients (Example 7); type: cell-based; settings: n=1
Description: (§4) Gepotidacin was tested against the following organisms obtained from UTI patients, in serial two-fold dilutions. The minimum inhibitory concentration (MIC) was determined by broth microdilution according to CLSI methods.

Acidovorax temperans = assay: as above; type: cell-based; settings: n=1
Description: as §4

Citrobacter amalonaticus = assay: as above; type: cell-based; settings: n=1
Description: as §4

O=c1ccc2ncc(=O)n3c2n1C[C@H]3CN1CCC(NCc2cc3c(cn2)OCCC3)CC1 [gepotidacin, (2R)-2-({4-[(3,4-dihydro-2H-pyrano[2,3-c]pyridin-6-ylmethyl)amino]-1-piperidinyl}methyl)-1,2-dihydro-3H,8H-2a,5,8a-triazaacenaphthylene-3,8-dione]
MIC (C. koseri [1]): 0.5 µg/mL (≈ 1.11 µM)
ratio of saliva AUC to unbound plasma AUC [2]: close to unity
Daily fAUC/MIC for 1-log Drop (E. coli ALL): 8.7
Daily fAUC/MIC for 2-log Drop (E. coli ALL): 15.6
Daily fAUC/MIC for Stasis (E. coli ALL): 4.3
MIC [3]: ≤ 8 µg/mL
Microbiological success at Follow-up (S. saprophyticus): Success
Microbiological success at TOC (S. saprophyticus): Success
Microbiological success at Follow-up (E. coli; Participant 2): Success
Microbiological success at TOC (E. coli; Participant 2): Success
Microbiological success at Follow-up (E. coli; Participant 3): Success
Microbiological success at TOC (E. coli; Participant 3): Success
Microbiological success at Follow-up (E. coli; Participant 4): Success
Microbiological success at TOC (E. coli; Participant 4): Success
Microbiological success at TOC (E. coli; Participant 5, failure due to an out of stability urine specimen): Failure^b
Microbiological success at Follow-up (E. coli; Participant 5, failures at TOC considered failures at Follow-up): Failure^c
Microbiological success at Follow-up (E. coli; Participant 6, MDR): Success
Microbiological success at TOC (E. coli; Participant 6, MDR): Success
Microbiological success at Follow-up (K. pneumoniae): Success
Microbiological success at TOC (K. pneumoniae): microbiological success
Microbiological success at TOC (K. pneumoniae; listed as GEP): Success
Microbiological success at Follow-up (C. koseri [4]): Failure
Microbiological success at TOC (C. koseri [4]): Success
MIC (Providencia stuartii): 32 µg/mL (≈ 71.3 µM)
MIC (Acidovorax temperans): 1 µg/mL (≈ 2.23 µM)
MIC (Citrobacter amalonaticus): 2 µg/mL (≈ 4.46 µM)
